Results: patent US6221862A, “Microbicide 1,4,2-dioxazine derivatives” (Bayer Aktiengesellschaft, priority 1997, dated 2001)

Columns and labels:
[1] = logP determination by HPLC (EEC Directive 79/831 Annex V. A8); assay type: physicochemical; details: acetonitrile/0.1% aqueous phosphoric acid, gradient method, acetonitrile/0.1% strength aqueous phosphoric acid
Experimental: The logP values were determined in accordance with EEC Directive 79/831 Annex V. A8 by HPLC (gradient method, acetonitrile/0.1% strength aqueous phosphoric acid)

Phytophthora infestans = assay type: in vivo; details: tomato, protective, 100 g/ha, 3 days after inoculation; 0% = control, 100% = no infestation
Plasmopara viticola = test: Plasmopara test (vine)/protective; assay type: in vivo; details: protective, 100 g/ha, 6 days after inoculation, 0% = control, 100% = no infestation
Experimental: Plasmopara test (vine)/protective
Solvent: 47 parts by weight of acetone
Emulsifier: 3 parts by weight of alkylaryl polyglycol ether
(§1) To prepare an appropriate formulation of the active compound, 1 part by weight of active compound is mixed with the stated amounts of solvent and emulsifier, and the concentrate is diluted with water to the desired concentration.
To test for protective activity, young plants are sprayed with the formulation of the active compound in the stated application amount. After the spray coating has dried on, the plants are inoculated with an aqueous spore suspension of Plasmopara viticola and then remain in an incubation cabin at about 20° C. and 100% relative atmospheric humidity for 1 day. The plants are then placed in a greenhouse at about 21° C. and about 90% relative atmospheric humidity for 5 days. The plants are then moistened and placed in an incubation cabin for 1 day.
Evaluation is carried out 6 days after the inoculation. In this evaluation, 0% means a degree of action which corresponds to that of the control, while a degree of action of 100% means that no infestation is observed.

Pyricularia oryzae = assay type: in vivo; details: rice, protective, 750 g/ha, 4 days after inoculation; 0% = control, 100% = no infestation
Leptosphaeria nodorum [2] = test: Leptosphaeria nodorum test (wheat)/curative; assay type: in vivo; details: curative, 250 g/ha, 10 days after inoculation, 0% = control, 100% = no infestation
Experimental: Leptosphaeria nodorum test (wheat)/curative
Solvent: 10 parts by weight of N-methyl-pyrrolidone
(§2) Emulsifier: 0.6 part by weight of alkylaryl polyglycol ether
as §1
(§3) To test for curative activity, young plants are sprayed with a conidia suspension of Leptosphaeria nodorum. The plants remain in an incubation cabin at 20° C. and 100% relative atmospheric humidity for 48 hours and are then sprayed with the formulation of the active compound in the stated application amount.
The plants are placed in a greenhouse at a temperature of about 15° C. and a relative atmospheric humidity of about 80%.
(§4) Evaluation is carried out 10 days after the inoculation. In this evaluation, 0% means a degree of action which corresponds to that of the control, while a degree of action of 100% means that no infestation is observed.

Leptosphaeria nodorum [3] = test: Leptosphaeria nodorum test (wheat)/protective; assay type: in vivo; details: protective, 250 g/ha, 10 days after inoculation, 0% = control, 100% = no infestation
Experimental: Leptosphaeria nodorum test (wheat)/protective
(§5) Solvent: 25 parts by weight of N,N-dimethylacetamide
as §2
To test for appropriate formulation of the active compound, 1 part by weight of active compound is mixed with the stated amounts of solvent and emulsifier, and the concentrate is diluted with water to the desired concentration.
(§6) To test for protective activity, young plants are sprayed with the formulation of the active compound in the stated application amount. After the spray coating has dried on, the plants are sprayed with a spore suspension of Leptosphaeria nodorum. The plants remain in an incubation cabin at 20° C. and 100% relative atmospheric humidity for 48 hours.
The plants are placed in a greenhouse at a temperature of about 15° C. and a relative atmospheric humidity of 80%.
as §4

Puccinia = Puccinia test (wheat)/protective; assay type: in vivo; details: protective, 250 g/ha, 10 days after inoculation, 0% = control, 100% = no infestation
Experimental: Puccinia test (wheat)/protective
as §5, §2, §1
as §6, with “the conidia” for “a spore”, “Puccinia.” for “Leptosphaeria nodorum.”
The plants are then placed in a greenhouse at a temperature of about 20° C. and a relative atmospheric humidity of 80% in order to promote the development of rust pustules.
as §4

Puccinia recondite = test: Puccinia test (wheat)/curative; assay type: in vivo; details: curative, 250 g/ha, 10 days after inoculation, 0% = control, 100% = no infestation
Experimental: Puccinia test (wheat)/curative
Solvent: 10 parts by weight of N,N-dimethylacetamide
as §2, §1
as §3, with “Puccinia recondite” for “Leptosphaeria nodorum.”, “hours. The plants” for “hours and”, “the” for “the formulation of the”, “compound formulation” for “compound”
The plants are placed in a greenhouse at a temperature of about 20° C. and a relative atmospheric humidity of about 80% in order to promote the development of rust pustules.
as §4

Row | SMILES | chromatographic logP [1] | degree of action (Phytophthora infestans) | degree of action (Plasmopara viticola) | degree of action (Pyricularia oryzae) | degree of action (Leptosphaeria nodorum [2]) | degree of action (Leptosphaeria nodorum [3]) | degree of action (Puccinia) | degree of action (Puccinia recondite)
1 | CON=C(C1=NOCCO1)c1ccccc1CSC(=Nc1ccc(OC)nc1)C1CC1 [Example 1] | 3.04 | ≥ 90% | ≥ 90% | ≥ 70% | ≥ 95% | ≥ 90% | ≥ 90% | ≥ 100%
2 | CON=C(C1=NOCCO1)c1ccccc1CSC(=Nc1ccccc1C(F)(F)F)C1CC1 [Example 3] | 4.16 |  |  |  |  |  |  | 
3 | CON=C(C1=NOCCO1)c1ccccc1CSC(=Nc1ccc(OC)cc1)C1CC1 [Example 2] | 3.16 |  |  | ≥ 70% |  |  |  | 
